{
  "source": "patent US20100035822A1",
  "about": "“PROLINE-RICH PEPTIDES, PHARMACEUTICAL COMPOSITION, USE OF ONE OR MORE PEPTIDES AND METHOD OF TREATMENT” (priority 2006, published 2010)",
  "key": {"[1]": {"system": "renal nitric oxide synthase (NOS)", "assay": "Activation of kidney NOS in mice (3H-arginine to 3H-citrulline conversion)", "type": "in vivo, mouse", "details": "HOE 140 10 μg/Kg for 1 hour", "method": "Male Swiss albinos weighing 22-25 g were injected intraperitoneally with: (1) 50 μl 0.9% NaCl (basal level control), or with 0.9% NaCl supplemented with LPS (2 mg/Kg) (positive control); (2) SEQ ID NO 8 (0.21, 0.91, and 3.47 mg/Kg); (3) SEQ ID NO 8 (0.91 mg/Kg) injected into animals pre-treated via intraperitoneally with L-NAME (3 mg/Kg for 1 h); (4) SEQ ID NO 8 (0.91 mg/Kg) injected into animals pre-treated via intraperitoneally with HOE140 (10 μg/Kg for 1 h); (5) captopril (0.21, 0.91, and 3.47 mg/Kg). After 5, 15, 30, 60, 120, and 180 min, animals were killed, their kidneys removed and stored at −70° C. Animals of group 3 and 4 were killed 30 minutes after administration of the oligopeptide.\nNOS activity was measured according to Bredt and Snyder [Bredt D S and Snyder S H. Isolation of nitric oxide synthetase, a calmodulin-requiring enzyme. Proc. Natl. Acad. Sci. USA, 87, 682-685, 1990], and is based on estimating the enzymatic activity of the conversion of L-arginine into L-citrulline using ^3H-arginine as a reference for the conversion.\nThe kidneys were minced in homogenizing buffer, pH 7.4 (20 mM HEPES, 0.32 M saccharose, 1 mM DTT, 0.1 mM EDTA, 1 mM PMSF), and sonicated. Protein dosage was performed according to Bradford (1976), followed by a chromatography step in a 300 μL Dowex 50WX8-400 column.\nFor the enzymatic assay, 80 μg total protein from each sample were incubated for 60 minutes at 37° C. in 200 μL buffer (30 mM HEPES, 1 mM EDTA, 1.25 mM CaCl2, 1 mM NADPH, 10 μg/mL calmodulin, 4 μM FAD, 4 μM FMN, 25 μM BH4, 120 nM arginine, 0.5 μCi ^3H-arginine). The reaction was stopped by the addition of 1 ml 20 mM HEPES, and incubation in ice bath. ^3H-citrulline was separated from ^3H-arginine by ion-exchange chromatography in a 300 μL Dowex 50WX8-400 column. Radioactivity of the eluates was measured in a beta-counter. After converting cpm (counts per minute) into dpm (disintegration per minute), the specific activity of the nitric oxide synthase (NOS) was calculated using the following equation: […]"}, "[2]": {"biological_target": "T1, argininosuccinate synthase (AsS) (Mus musculus, UniProt P16460)", "T1 construct": "Cytosolic and membrane fractions of the renal extract (100 mg/ml total protein) were applied to separate columns; from tissue; host or cells: Balb-c mouse kidney, cytosolic and membrane fractions", "T1 sequence (P16460 1-412)": "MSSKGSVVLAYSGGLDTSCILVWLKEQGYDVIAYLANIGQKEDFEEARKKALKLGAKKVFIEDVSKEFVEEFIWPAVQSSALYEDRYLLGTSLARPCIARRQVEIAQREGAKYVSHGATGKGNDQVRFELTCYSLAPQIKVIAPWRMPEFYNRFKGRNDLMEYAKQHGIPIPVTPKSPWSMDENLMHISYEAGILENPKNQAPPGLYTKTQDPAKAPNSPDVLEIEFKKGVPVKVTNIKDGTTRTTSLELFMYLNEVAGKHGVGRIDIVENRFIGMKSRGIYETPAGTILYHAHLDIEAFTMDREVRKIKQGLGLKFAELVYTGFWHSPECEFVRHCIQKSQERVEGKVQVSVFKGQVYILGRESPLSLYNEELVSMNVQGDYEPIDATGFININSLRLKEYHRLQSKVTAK", "assay": "Affinity chromatography of mouse kidney extract on peptide column; identification of the bound protein", "type": "binding", "details": "affinity column with SEQ ID NO 7 as ligand; crude mouse kidney extract", "method": "Starting material were the cytosolic and plasma membrane crude extracts of mouse kidney cells homogenized in the buffer 10 mM Tris-HCl pH 7.5, 25 mM saccharose, 1 mM EDTA, and 1 mM PMSF (cytosolic fraction), or 1% Triton X-100 (plasma membrane fraction). Supernatants were dialyzed in 0.2 M NaHCO3, 0.5 M NaCl, pH 8.3, and separately applied to the affinity chromatography column Hitrap NHS-activated (GE Healthcare) coupled to 5 mg of peptide SEQ ID NO 7.\nPreparing affinity columns. Columns were washed three times with 2 ml 1 mM HCl before homogeneous preparations of SEQ ID NO 7 (5 mg in 1 ml 0.2 M NaHCO3, 0.5 M NaCl, pH 8.3) were applied. After 30 min incubation at room temperature, peptides had been coupled, and the column was inactivated with buffer A (0.5 M ethanolamine, 0.5 M NaCl, pH 8.3), and washed with 0.2 M NaHCO3, 0.5 M NaCl, pH 8.3, and stored at 4° C. in 50 mM Na2HPO4, 0.1%, NaN3, pH 7.0. The columns were called HiTrap-SEQ. ID NO 7. […]\nAffinity chromatography and analysis of the retained proteins by SDS-PAGE. […] Protein concentration (mg/ml) was determined by the method of Bradford (Bradford, M. M. A rapid and sensitive method for the quantitation of microgram quantities of protein utilizing the principle of protein-dye binding. Anal. Biochem. 72: 248-254, 1976) with the Protein Assay reagent from BioRad. […]"}, "[3]": {"system": "SK-N-AS cells (human neuroblastoma)", "assay": "Free intracellular Ca2+ concentration in SK-N-AS cells (fluo-3 AM, confocal microscopy)", "type": "cell-based", "method": "In these experiments the variation in free intracellular calcium [Ca^2+]i concentration was measured in SK-N-AS cells (human neuroblastoma, ATCC No. CRL-2137) after addition of 1 μmolar of peptides SEQ ID NO 1 or SEQ ID NO 8, or of 1 μmolar captopril. Cells were kept in DMEM (Dulbecco Modified Medium), supplemented with 10% fetal bovine serum (FBS) and 1% non-essential amino acids, at 5% CO2 atmosphere, at 37° C., and 95% relative humidity. Cells were treated with trypsin, and replicated at adequate cell concentrations.\nMeasurements of variation in the concentration of free [Ca^2+]i were performed with a confocal microscope LSM 510 (Zeiss, Jena, Germany), as described by Martins et al., (Martins et al., Neuronal differentiation of P19 embryonal carcinoma cells modulates kinin B2 receptor gene expression and function. J. Biol. Chem. 280: 19576-19586, 2005). Approximately 5×10^4 SK-N-AS cells were plated on 60 mm plates 24 hours prior to measurement, and then treated with 4 μM fluo-3 AM (Invitrogen Corporation) in 0.5% DMSO and 0.1% non-ionic surfactant pluronic acid F-127 for 30 minutes at 37° C. Cells were washed with DMEM containing 10% FBS, and transferred to defined medium (5 μg/ml insulin, 30 μg/ml transferrin, 20 μM ethanolamine, 30 nM sodium selenite, 1 μM sodium pyruvate, 1% non-essential amino acids, 1 mM glutamine, 100 μg/ml penicillin, 100 μg/ml streptomycin, 10 mM HEPES pH 7.4 in DMEM). The fluorescent fluo-3 AM was excited at 488 nm, and the fluorescence measured at 526 nm.\nVariations in the [Ca^2+]i were measured in non-stimulated cells, and in cells stimulated with peptides SEQ ID NO 1 or SEQ ID NO 8, or with captopril (Sigma Aldrich). Increase of fluorescence was monitored for 2 minutes, and images were acquired in 256×256 pixels every second. At the end of each experiment, 5 μM ionophore (4-Br-A23187) were added, followed by 10 mM EGTA, or 20 μM digitonin to determine maximum and minimum fluorescence, Fmax and Fmin respectively, as described by Grynkiewicz et al., (1985).\nIntracellular calcium concentrations [Ca^2+]i, related to fluorescence (F) values obtained after addition of peptides SEQ ID NO 1 or SEQ ID NO 8, were calculated with the equation: [Ca^2+]=Kd(F−Fmin)/(Fmax−F), assuming Kd=450 nM for fluo-3 AM (Hallett et al., 1990)."}, "[4]": {"biological_target": "T2, argininosuccinate synthase (AsS) (mouse, UniProt P16460 1-412)", "T2 sequence": "T1 sequence (P16460 1-412)", "assay": "cell-based or functional assay"}},
  "note": "Square brackets hold non-standard residues; d marks the D form. Ends that are not written are not given here. pGlu = O=C1CC[C@@H](C(=O)O)N1",
  "data": [
    {"molecule": "HOE 140", "values": [
      {"measurement": "effect of B2 receptor blockade on the NOS activity increase caused by SEQ ID NO 8", "setting": "[1]", "result": "not able to prevent the increase"}
    ]},
    {"molecule": "ENWPHPQIPP [SEQ ID NO 7]", "values": [
      {"measurement": "binding to the approx. 46 kDa protein (AsS) of mouse kidney extract", "setting": "[2]", "result": "bound"},
      {"measurement": "time from the peak until the [Ca2+]i plateau", "setting": "[3]", "result": 20, "unit": "s"},
      {"measurement": "[Ca2+]i response peak", "setting": "[3]; immediately after addition of the peptide", "result": "~250", "unit": "nM"}
    ]},
    {"molecule": "[pGlu]NWPHPQIPP", "note": "[oligopeptide SEQ ID NO 8]", "values": [
      {"measurement": "production rate of phosphate (enzymatic activity of the AsS)", "setting": "[4]", "result": "~2.5", "unit": "fold"}
    ]}
  ]
}
